The numbers were not newly measured in US7413690B1, “Process and apparatus for producing spherical pellets using molten solid matrices” (The University of Mississippi, priority 2003, dated 2008), which cites them from elsewhere.

In the case of `C[C@@H]1C[C@H]2[C@@H]3CCC4=CC(=O)C=C[C@]4(C)[C@@]3(F)[C@@H](O)C[C@]2(C)[C@@]1(O)C(=O)CO` [Dexamethasone], the “water solubility (in words)” value is reported as “water insoluble”. As for `Cn1c(=O)c2[nH]cnc2n(C)c1=O` [theophylline], the “water solubility (in words)” value is “water soluble”.
